Reference: article PMC7719179, “Small molecule inhibition of Dynamin-dependent endocytosis targets multiple niche signals and impairs leukemia stem cells” (Nature Communications, 2020)
Values joined by “and” are separate entries in the source; they are usually repeats but may differ in a detail not shown here. Equal entries are not always repeated.

Experiments:
[1] = tested on: pSTAT5 and HES1 in ETP12 and ALL8 patient-derived cells; test: pSTAT5 and HES1 in ETP12 and ALL8 cells harvested from treated recipients; format: in vivo, human
Experimental: Phosphoflow analysis was performed as previously described. Briefly, 2 × 10^6 cells stained for surface markers were subsequently resuspended into PBS 1× + 4% v/v paraformaldehyde and incubated for 10 min at 4 °C for fixation. Fixed cells were washed twice using PBS 1×, then resuspended in pre-chilled at −20 °C Perm Buffer III (BD Pharmingen) and incubated 30 min at 4 °C for permeabilization. Cells were washed twice using PBS 1× and incubated overnight at 4 °C in PBS 1× + 2% v/v fetal calf serum (FCS) with Cell Signalling purified antibodies (Genesearch Pty Ltd, Arundel QLD, Australia) against pSTAT5 (Tyr694; #9359), phospho-p38 MAPK (Thr180/Tyr182; #4511), phospho-p44/42 (Erk1/2; #9102), phospho-S6 (Ser235/236; #4856) and phospho-Akt (Ser473; #9271) or isotype control. For intracellular HES1 detection, cells stained for surface markers were subsequently fixed and permeabilized using the BD Cytofix/Cytoperm^TM Kit and incubated overnight at 4 °C in PBS 1× + 2% v/v FCS with a purified antibody against HES1 (D6PU; #11988, Cell Signalling) or isotype control. After staining with primary antibodies for phosphoflow or intracellular detection, cells were incubated in permeabilization buffer with donkey Alexa Fluor 488-conjugated anti-rabbit secondary antibody (A-21206, lot #1910751, Molecular Probes, Invitrogen) or goat Alexa Fluor 546-conjugated anti-rabbit secondary antibody (A-11035, lot #1904467, Molecular Probes, Invitrogen) for 1 h on ice, and washed twice in PBS 1×. Fluorescence-activated cell sorting (FACS) analysis was performed using LSRII and LSR Fortessa cytometers, following the gating strategies described in Supplementary Fig. 11. Cell sorting was performed with a FACSAria or BD Influx.
Patient-derived xenograft models were established as previously described[97],[98]. […] For transplantation assays, 10^6 splenocytes harvested from successfully engrafted primary human ETP-ALL or T-ALL xenografts were injected into nonobese diabetic/severe combined immunodeficient (NOD.Cg-Prkdc^scid, also termed NOD/SCID) or NOD/SCID/Il2rg^tm1wjl/SzJ (NSG) mice[99]. Moreover, 1.5 × 10^6 cells splenocytes harvested from successfully engrafted patient-derived AML xenografts were injected into nonobese diabetic/severe immunodeficient (NOD.Cg-Rag1^tm1MomIl2rg^tm1wjl/SzJ, also termed NRG) mice expressing human IL-3, human GM-CSF and human SCF from the SGM3 triple transgene (NRGS)[100]. Engraftment into recipients was monitored by FACS analysis of peripheral blood as previously described. […] The in vivo efficacy of Dynole 34-2 was assessed 24 h after the last injection by FACS analysis and immunohistochemistry as described in Supplementary Methods. […]

[2] = tested on: Lmo2^Tg primary leukemias (T-ALL 249, T-ALL 273, T-ALL 582); test: In vivo efficacy in recipients of Lmo2^Tg primary T-ALL: leukemic DN3a cells, spleen weight, %Cd45.2+ in blood; set-up: species or system mouse; conditions: for Absolute numbers CD45.2+ DN3a cells: 24 h after last administration
Experimental: These compounds were diluted in 50% v/v DMSO/20 mM Tris-HCl pH 7.4 immediately prior to use.
Flow cytometry analyses were performed as previously described[10],[86] on single-cell suspensions stained using BD Pharmingen antibodies (BD Australia, North Ryde NSW, Australia) against mouse CD4 (RM4-5), CD8 (53-6.7), CD25 (PC61.5), CD44 (IM7), CD45.1 (A20), CD45.2 (104), Thy1.2 (53-2.1; #561616), TCRβ (H57-597), CD117 (ACK45), CD135 (A2F10.1), CD150 (TC15-12F12.2; #562373), B220 (RA3-6B2; #563708), CD3 (145-2C11; #563004), CD19 (ID3; #557655), Gr-1 (RB6-8C5; #563299 and #565033), CD11b (M1/70; #563015 and #560455), Ter119 (Ter119; #565523 and #557909), Sca-1 (D7; #558160) and an eBioscience antibody (eBioscience, Invitrogen) against mouse NOTCH1 (22E5). DN3 populations and IL-7R were stained using BioLegend antibodies (Australian Biosearch, Balcatta WA, Australia) against mouse CD28 (E18) and CD127 (A7R34), respectively. Apoptosis was measured using an antibody against AnnexinV (#556420, BD Australia) and the […] Sytox Blue (BD Australia) following the manufacturer’s protocol. […]
The period of administration is indicated in light grey.
g, Leukemia growth delay (LGD) in recipients injected with Lmo2Tg primary leukemias treated with
Median is indicated for each condition
(bar) with Mean ± SEM indicated for each primary T-ALL, 2-way ANOVA with Tukey’s correction

CCCCCCCCNC(=O)C(C#N)=Cc1cn(CCCN(C)C)c2ccccc12 [Dynole 34-2, 2-Cyano-N-octyl-3-(1-(3-dimethylaminopropyl)-1H-indol-3-yl)-acrylamide]
HES1 (MFI) in human CD45+ cells ([1]; PDX ALL8): 1836 MFI and 2160 MFI and 2094 MFI
pSTAT5 (MFI) in human CD45+ cells ([1]; PDX ALL8): 2379 MFI and 2645 MFI and 2581 MFI
HES1 (MFI) in human CD45+ cells ([1]; PDX ETP12): 8443 MFI and 7622 MFI and 8597 MFI and 6696 MFI and 10495 MFI and 10443 MFI
pSTAT5 (MFI) in human CD45+ cells ([1]; PDX ETP12): 4191 MFI and 3709 MFI and 3790 MFI
Absolute numbers CD45.2+ DN3a cells ([2]; T-ALL 249, Spleen of recipients): 14400000 and 25700000 and 20600000
Proportion of CD45.2+ (%) in peripheral blood ([2]; T-ALL 249, time 1 weeks): 1.0%
Proportion of CD45.2+ (%) in peripheral blood ([2]; T-ALL 249, time 3 weeks): 85.0% and 93.0% and 82.0% and 75.0%
Proportion of CD45.2+ (%) in peripheral blood ([2]; T-ALL 249, time 3.7 weeks): 85.0% and 76.0%
Proportion of CD45.2+ (%) in peripheral blood ([2]; T-ALL 249, time 4 weeks): 42.1% and 57.0% and 54.0% and 43.9% and 53.3%
Absolute numbers CD45.2+ DN3a cells ([2]; T-ALL 273, BM of recipients): 9200 and 6480 and 12500
Proportion of CD45.2+ (%) in peripheral blood ([2]; T-ALL 273, time 1 weeks): 1.0%
Proportion of CD45.2+ (%) in peripheral blood ([2]; T-ALL 273, time 5 weeks): 2.0%
Proportion of CD45.2+ (%) in peripheral blood ([2]; T-ALL 273, time 6 weeks): 64.0%
Proportion of CD45.2+ (%) in peripheral blood ([2]; T-ALL 582, time 1 weeks): 4.9% and 3.3% and 7.9% and 0.1%
Proportion of CD45.2+ (%) in peripheral blood ([2]; T-ALL 582, time 2 weeks): 19.6%
Proportion of CD45.2+ (%) in peripheral blood ([2]; T-ALL 582, time 4 weeks): 5.1% and 6.0% and 2.7% and 1.8%
Proportion of CD45.2+ (%) in peripheral blood ([2]; T-ALL 582, time 4.1 weeks): 57.1%
Proportion of CD45.2+ (%) in peripheral blood ([2]; T-ALL 582, time 5 weeks): 40.6% and 45.8% and 42.7% and 38.8%
Proportion of CD45.2+ (%) in peripheral blood ([2]; T-ALL 582, time 5.6 weeks): 90.7%
Proportion of CD45.2+ (%) in peripheral blood ([2]; T-ALL 582, time 6 weeks): 97.8%
Proportion of CD45.2+ (%) in peripheral blood ([2]; T-ALL 582, time 6.3 weeks): 96.2%
Spleen weight ([2]; recipients of primary T-ALL 273): 0.186 g and 0.118 g and 0.165 g
Spleen weight ([2]; recipients of primary T-ALL 582): 0.123 g and 0.097 g and 0.095 g
